Reference: ChEMBL document CHEMBL3352275, “2-Aminothiazole derivatives as antimycobacterial agents: Synthesis, characterization, in vitro and in silico studies” (Eur J Med Chem, 2014)
In brackets after ≈: the same amount, converted by molar mass.

molecular target: not listed separately; assay: Binding affinity to Mycobacterium tuberculosis beta-Ketoacyl-ACP Synthase; settings: not given

Compound	Ki
Fc1ccc(Nc2nc(-c3ccc(Br)cc3)cs2)cc1	1.28 µM
Brc1ccc(Nc2nc(-c3ccncc3)cs2)cc1	0.44 µM
Cc1cccc(Nc2nc(-c3ccncc3)cs2)n1	30.2 µM

system: Mycobacterium tuberculosis; assay: Antimycobacterial activity against Mycobacterium tuberculosis H37Rv after 5 days by resazurin-based microdilution method; assay type: functional; settings: 120 h

Compound	MIC
Oc1ccc(Nc2nc(-c3ccc(Cl)cc3)cs2)cc1	200 µM (≈ 60.6 µg/mL)
COc1ccc(-c2csc(Nc3ccc(O)cc3)n2)cc1	> 200 µM
COc1ccc(-c2csc(Nc3cccc(C)n3)n2)cc1	> 200 µM
Fc1ccc(Nc2nc(-c3cccnc3)cs2)cc1	> 200 µM
Cc1cccnc1Nc1nc(-c2ccc(Br)cc2)c(Br)s1	> 200 µM
Fc1ccc(Nc2nc(-c3ccc(Cl)cc3)cs2)cc1	12.5 µM (≈ 3.81 µg/mL)
Fc1ccc(Nc2nc(-c3ccc(Br)cc3)cs2)cc1	25 µM (≈ 8.73 µg/mL)
Cc1sc(Nc2ccc(F)cc2)nc1-c1ccc(Br)cc1	100 µM (≈ 36.3 µg/mL)
Fc1ccc(Nc2nc(-c3ccc(Br)cc3)c(Br)s2)cc1	25 µM (≈ 10.7 µg/mL)
Fc1ccc(Nc2nc(-c3ccc4ccccc4c3)cs2)cc1	100 µM (≈ 32 µg/mL)
COc1ccc(-c2csc(Nc3ccc(F)cc3)n2)cc1	12.5 µM (≈ 3.75 µg/mL)
COc1ccc(-c2csc(Nc3ccc(Cl)cc3[N+](=O)[O-])n2)cc1	12.5 µM (≈ 4.52 µg/mL)
O=[N+]([O-])c1cc(Cl)ccc1Nc1nc(-c2ccc3ccccc3c2)cs1	> 200 µM
O=[N+]([O-])c1cc(Cl)ccc1Nc1nc(-c2ccccn2)cs1	> 200 µM
O=[N+]([O-])c1cc(Cl)ccc1Nc1nc(-c2cccnc2)cs1	> 200 µM
O=[N+]([O-])c1cc(Cl)ccc1Nc1nc(-c2ccncc2)cs1	> 200 µM

Compound	MIC
Brc1ccc(-c2csc(Nc3ccccn3)n2)cc1	> 200 µM
Cc1sc(Nc2ccccn2)nc1-c1ccc(Br)cc1	> 200 µM
Brc1ccc(-c2nc(Nc3ccccn3)sc2Br)cc1	> 200 µM
Cc1cccnc1Nc1nc(-c2ccc(Cl)c(Cl)c2)cs1	> 200 µM
Cc1cccnc1Nc1nc(-c2ccc(Br)cc2)c(C)s1	100 µM (≈ 36 µg/mL)
Cc1cccc(Nc2nc(-c3ccc(Cl)c(Cl)c3)cs2)n1	> 200 µM
Cc1cccc(Nc2nc(-c3ccc(Br)cc3)c(C)s2)n1	> 200 µM
Cc1cccc(Nc2nc(-c3cccc4ccccc34)cs2)n1	> 200 µM
Cc1cccnc1Nc1nc(-c2cccnc2)cs1	> 200 µM
Cc1cccc(Nc2nc(-c3ccncc3)cs2)n1	100 µM (≈ 26.8 µg/mL)
Cc1cccnc1Nc1nc(-c2ccncc2)cs1	> 200 µM
Oc1ccc(Nc2nc(-c3cccnc3)cs2)cc1	> 200 µM
c1ccc(Nc2nc(-c3cccnc3)cs2)nc1	> 200 µM
Oc1ccc(Nc2nc(-c3ccncc3)cs2)cc1	> 200 µM
Fc1ccc(Nc2nc(-c3ccncc3)cs2)cc1	25 µM (≈ 6.78 µg/mL)
